Data: ChEMBL document CHEMBL3137667, “[Drug-induced liver injury; fourteenth updated edition of the bibliographic database of liver injuries and related drugs]” (Gastroenterol Clin Biol, 2004)

Experiments:
[1] = Highest frequency of moderate liver toxicity observed during clinical trials, expressed as a percentage. [column '% BIOL' in source]; conditions: human
[2] = Highest frequency of acute liver toxicity observed during clinical trials, expressed as a percentage. [column '% AIGUE' in source]; conditions: human
[3] = Presence of at least one case with successful reintroduction. [column 'REINT' in source]; conditions: human
[4] = Comments (NB not yet translated). [column 'COMMENTAIRES' in source]; conditions: human
[5] = Times to onset, minimal and maximal, observed in the indexed observations. [column 'DELAI' in source]; conditions: human
[6] = human, serum
[7] = human
[8] = human; remark: listed apart in the source
[9] = human; remark: listed apart in the source
[10] = human, serum, 4383 h
[11] = human; remark: listed apart in the source
[12] = human; remark: listed apart in the source
[13] = human; remark: listed apart in the source
[14] = human; remark: listed apart in the source
[15] = human; remark: listed apart in the source
[16] = human; remark: listed apart in the source
[17] = Proposed mechanism(s) of liver damage. [column 'MEC' in source]; conditions: human
[18] = human, serum; remark: listed apart in the source
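Throughout, for Hepatotoxicity (association with vascular disease): count of indexed literature references reporting vascular liver injury in humans, e.g. peliosis hepatitis, hepatic veno-occlusive disease or Budd-Chiari syndrome.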
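Throughout, for Hepatotoxicity (benign tumour): value is a count of indexed literature references citing a benign tumour confirmed by histopathology.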
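Throughout, for Hepatotoxicity (choleostasis): human cholestatic liver injury, shown by histopathology or by peak ALT or AST elevation over alkaline phosphatase ratio below 2, value counts indexed literature reports.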
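Throughout, for Hepatotoxicity (chronic liver disease): chronic liver injury confirmed by histopathology or persistently raised serum aminotransferase activity beyond 6 months, value given as the count of indexed literature references.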
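Throughout, for Hepatotoxicity (cirrhosis): value is a count of indexed literature references reporting cirrhosis confirmed by histopathology.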
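Throughout, for Hepatotoxicity (cytolytic): human cytolytic liver injury, shown by histopathology or by a ratio above 5 of peak ALT or AST elevation to alkaline phosphatase elevation, value counts indexed references.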
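Throughout, for Hepatotoxicity (granulomatous hepatitis): value is a count of indexed literature references reporting granulomatous liver disease confirmed by histopathology.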
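Throughout, for Hepatotoxicity (malignant tumour): malignant tumour confirmed by histopathology, value gives the count of indexed literature references reporting it.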
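Throughout, for Hepatotoxicity (severe hepatitis): human clinical data: severe hepatitis, meaning potentially life-threatening liver failure or clinically observed cases, the value counts how many indexed literature references report it.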
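Throughout, for Hepatotoxicity (steatosis): steatosis confirmed by histopathology, value is the count of indexed references.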

Compound	Hepatotoxicity (successful reintroduction) [3]	Hepatotoxicity (time to onset) [5]	Hepatotoxicity (moderate) [6]	Hepatotoxicity (chronic liver disease) [10]	Hepatotoxicity (cirrhosis) [11]	Hepatotoxicity (association with vascular disease) [13]	Hepatotoxicity (steatosis) [14]	Hepatotoxicity (malignant tumour) [15]	Hepatotoxicity (benign tumour) [16]	Hepatotoxicity (moderate) [1] [%]	Hepatotoxicity (acute) [2] [%]	Hepatotoxicity (mechanism) [17]	Hepatotoxicity (acute) [18]	Hepatotoxicity (cytolytic) [7]	Hepatotoxicity (choleostasis) [8]	Hepatotoxicity (severe hepatitis) [9]	Hepatotoxicity (granulomatous hepatitis) [12]	further results
CC(C)(C)NC(=O)[C@@H]1C[C@@H]2CCCC[C@@H]2CN1C[C@@H](O)[C@H](Cc1ccccc1)NC(=O)[C@H](CC(N)=O)NC(=O)c1ccc2ccccc2n1	yes	< 1 day - 6 months	7	0	0	0	0	0	0	–	–	–	–	–	–	–	–	Hepatotoxicity (moderate) ([1]; Liver): 44%; Hepatotoxicity (acute) ([2]; Liver): 12.5%; Hepatotoxicity (comment) [4]: REACTIVATION_HVB; Hepatotoxicity (cytolytic) ([7]; Liver): 10; Hepatotoxicity (choleostasis) ([8]; Liver): 0; Hepatotoxicity (severe hepatitis) ([9]; Liver): 0; Hepatotoxicity (granulomatous hepatitis) ([12]; Liver): 0
Cc1nc2ccc(CN(C)c3ccc(C(=O)N[C@@H](CCC(=O)O)C(=O)O)s3)cc2c(=O)[nH]1 [RALTITREXED]	yes	2 weeks - 17 weeks	20	0	1	0	1	0	0	100	21.9	Dose-dependant	8	7	1	3	0	–
CCCCCCCCNC(C)C(O)c1ccc(SC(C)C)cc1 (configuration not stated) [SULOCTIDIL]	yes	1 week - 1 year	3	1	4	0	1	0	0	15	0.5	Allergic	8	7	3	2	0	–
CC(C)(C)c1ccc(C(O)CCCN2CCC(C(O)(c3ccccc3)c3ccccc3)CC2)cc1 (configuration not stated) [TERFENADINE]	yes	4 weeks - 5 months	1	0	0	0	0	0	0	–	–	–	–	2	2	–	0	Hepatotoxicity (moderate) ([1]; Liver): 19.2%; Hepatotoxicity (acute) ([2]; Liver): 0%; Hepatotoxicity (comment) [4]: DESTRUCTION_VB; Hepatotoxicity (severe hepatitis) ([9]; Liver): 0
Cn1c(=O)c2[nH]cnc2n(C)c1=O.O [THEOPHYLLINE]	yes	4 days - 11 days	2	0	0	0	0	0	0	55.6	0	Dose-dependant	1	1	0	0	0	–
CCCC(C)C1(CC)C(=O)NC(=S)NC1=O (configuration not stated) [THIOPENTAL]	yes	1 day - 5 days	4	0	0	0	1	0	0	87	0	Dose-dependant	2	1	0	0	0	–
INTERFERON GAMMA-1A	yes	6 days - 3 months	50	0	0	0	0	0	0	65	0	Dose-dependant	3	2	0	1	0	–
